Structures can show the parent of a compound that is named as a salt. Where two headings read alike, the source gives them in different places. Where a SMILES comes first, the peptide text is derived from it. The star is where a group is joined. Cbz = O=C(OCc1ccccc1)*
What was measured:
HT3 = test: Cell viability after 48-hr treatment (Table 1); type: cell-based; conditions: read-out: IC50, HT3
Method: (§1) Cells seeded at the concentration of 1,000 cells/well for HeLa, 5,000 cells/well for ES2 and HCT116 and 10,000-20,000 cells/well for other cell lines in 100 μL medium in 96-well plate were treated with RA series compounds at specified concentrations. […]

SiHa = test: Cell viability after 48-hr treatment (Table 1); type: cell-based; conditions: read-out: IC50, SiHa
Method: as §1

HaCaT = test: Cell viability after 48-hr treatment (Table 1); type: cell-based; conditions: read-out: IC50, HaCaT
Method: as §1

C33A = test: Cell viability after 48-hr treatment (Table 1); type: cell-based; conditions: read-out: IC50, C33A
Method: (§2) Cell viability was assayed using CellTiter 960 AQueous One Solution Reagent (Promega, Madison, Wis.). Cells seeded at the concentration of 1,000 cells/well for HeLa, 5,000 cells/well for ES2 and HCT116 and 10,000-20,000 cells/well for other cell lines in 100 μL medium in 96-well plate were treated with RA series compounds at specified concentrations. […]

FaDu = test: Cell viability after 48-hr treatment (Table 1); type: cell-based; conditions: read-out: IC50, FaDu
Method: as §2

SKOV3 = test: Cell viability after 48-hr treatment (Table 1); type: cell-based; conditions: read-out: IC50, SKOV3
Method: as §2

HeLa = test: Cell viability after 48-hr treatment (Table 1); type: cell-based, human; conditions: for IC50: read-out: IC50, HeLa; for potency in cell killing and polyubiquitin accumulation / functional assays relative to RA190: HeLa cells, FIGS. 1I, 9I, 10A-10C
Method: as §2

OVCAR3 = test: Cell viability after 48-hr treatment (Table 1); type: cell-based, human; conditions: XTT assay
Method: as §2

HOK-16B = test: Cell viability after 48-hr treatment (Table 1); type: cell-based; conditions: read-out: IC50, HOK-16B
Method: (§3) Cell viability was assayed using CellTiter 960 AQueous One Solution Reagent (Promega, Madison, Wis.). Cells seeded at the concentration of 1,000 cells/well for HeLa, 5,000 cells/well for ES2 and HCT116 and 10,000-20,000 cells/well for other cell lines in 100 μL medium in 96-well plate were treated with RA series compounds at specified concentrations. After the indicated periods, cells were incubated according to the manufacturer's protocol with the MTS labeling mixture for 1-2 hr and absorbance at 490 nm measured using a Benchmark Plus microplate spectrophotometer (BIO-RAD).

CasKi = test: Cell viability after 48-hr treatment (Table 1); type: cell-based; conditions: read-out: IC50, CasKi
Method: as §3

RPN13 = molecular target: T1, RPN13 (Homo sapiens, UniProt Q16186); test: Biotin labeling assay; type: binding; conditions: cell lysate or purified RP, streptavidin-peroxidase blot
T1 construct: endogenous in cells; host or cells: HeLa, HS578T cell lysate
Method: FIGS. 10 A-10E show a series of graphs and immunoblots showing the effects of several compounds on cell viability and proteasome activity. […] 10B and 10C show immunoblots of the proteasome activity of cell lines treated with the indicated compounds. […] IC50 values were determined in triplicate. In FIG. 10B, HeLa cells were treated for 12 hr and the cell lysate was subjected to immunoblot analysis with anti-Ubiquitin antibody. In FIG. 10C, SiHa cells were treated with the indicated compounds for 12 hr and the lysate subjected to Western blot analysis with anti-Ubiquitin antibody. HeLa cell lysate was treated with RA190B, subjected to SDS-PAGE, and probed with streptavidin-peroxidase following protein transfer to a polyvinylidene difluoride (PVDF) membrane. The streptavidin-peroxidase bound to biotinylated cellular proteins, but a striking new band at 42 kDa appeared in RA190B-treated samples (FIG. 2A). […] IC50 values were determined in triplicate.
To eliminate the possibility that another RP component was required for RA190B interaction, RPN13 or an irrelevant protein (L2) was overexpressed in bacteria. Cell lysate harvested from bacteria either with or without […] induction of ectopic protein expression was labeled with RA190B and probed by blotting with streptavidin-peroxidase. RA190B reacted strongly with a 42 kDa protein only in lysates of bacteria expressing RPN13 (FIG. 2D). […] 800 μL fractions were collected and alternate fractions (1,3,5,7,9,11,13,15,17) were analyzed for the presence of proteasomal proteins (RPN13, RPN2, RPN1 and UCH37) by Western blot analysis.
Human cells (5×10^6 HeLa or 293TT cells) were lysed using MPER (Pierce) lysis buffer (500 μL). RPN13 or HPV L2 transformed bacterial cells (500 μL of culture) were centrifuged to harvest the cells which were re-suspended in 500 μL BPER (Pierce). Cell lysates were centrifuged at 10,000 rpm briefly (2 min) at 4° C. to remove cell debris. Lysate supernatant (200 μL) was pre cleared with streptavidin dyna beads (20 μL) for 1 h at 4° C. to remove non-specific biotin binding and incubated with compounds (indicated concentrations or 20 μM) at 4° C. for 1 hr. An equal amount of each sample (20 μL of lysate) was mixed with an equal volume of Laemmli sample buffer (20 μL) (BioRad) and was boiled for 5 min. […] (24 V). Membrane was blocked with 5% BSA in PBST for 1 hr at room temperature and washed for 20 min (3×PBST). Then the membrane was probed with HRP-streptavidin (1:10,000 in PBST) for 1 hr at room temperature and washed for 30 min (3×PBST) and developed using HyGLO chemiluminescent detection reagent (Denville) for biotin recognition. For the purified enzyme assay, 19S purified proteasome (R&D Systems, Cat. No. E-366) (500 ng) in 19S buffer (20 mM HEPES, 20 mM NaCl, 1 mM DTT, 15% Glycerol) was incubated with compounds (20 μM) for 1 hr at room temperature and mixed with an equal volume of Laemmli sample buffer (20 μL) (BioRad) and was boiled for 5 min. Each sample was loaded onto gel and followed the western blot protocol mentioned above.
Purified 19S proteasome (500 ng) was incubated with corresponding compounds for 30 min and subjected to immunoblot and probed with HRP-conjugated streptavidin. In FIG. 23, the single band at 42 KDa indicates Rpn13 binding to 195. RA183B (20 μM) is used as positive control for Rpn13 binding. Competition experiments were done with RA183 (100 μM) and RA195 (100 μM) along with RA195B (20 μM).

T1 sequence (Q16186 whole entry): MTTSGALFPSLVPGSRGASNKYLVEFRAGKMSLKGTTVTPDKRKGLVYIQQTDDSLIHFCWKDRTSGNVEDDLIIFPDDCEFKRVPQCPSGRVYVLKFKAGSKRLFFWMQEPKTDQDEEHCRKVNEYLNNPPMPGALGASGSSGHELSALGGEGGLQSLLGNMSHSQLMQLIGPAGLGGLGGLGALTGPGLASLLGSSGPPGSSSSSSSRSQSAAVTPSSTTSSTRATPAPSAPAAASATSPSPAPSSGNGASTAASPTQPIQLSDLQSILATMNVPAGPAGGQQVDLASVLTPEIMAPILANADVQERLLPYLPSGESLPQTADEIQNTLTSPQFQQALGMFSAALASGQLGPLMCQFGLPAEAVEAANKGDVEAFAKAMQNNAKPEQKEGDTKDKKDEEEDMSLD

3,5-bis(3,4-dichlorobenzylidene)-1-(S-2-amino-3-(4-hydroxy)-phenyl)-piperidin-4-one HCl salt [RA213]
IC50 (HT3; 48-hr treatment, XTT assay): > 5000 nM
IC50 (SiHa; 48-hr treatment, XTT assay): 2500 nM
IC50 (HaCaT; 48-hr treatment, XTT assay): > 2500 nM
IC50 (C33A; 48-hr treatment, XTT assay): > 5000 nM
IC50 (FaDu; 48-hr treatment, XTT assay): > 5000 nM
IC50 (SKOV3; 48-hr treatment, XTT assay): > 2500 nM
IC50 (HeLa; 48-hr treatment, XTT assay): 600 nM
IC50 (OVCAR3): > 5000 nM
IC50 (HOK-16B; 48-hr treatment, XTT assay): 1500 nM
IC50 (CasKi; 48-hr treatment, XTT assay): 600 nM

CC(C)C[C@@H](C=O)NC(=O)[C@H](CC(C)C)NC(=O)[C@H](CC(C)C)NC(=O)OCc1ccccc1 [MG132, reference compound] (Cbz-Leu-Leu-Leu-aldehyde)
IC50 (HT3; Homo sapiens, HT-3, 48 h): > 5000 nM
IC50 (SiHa; Homo sapiens, SiHa, 48 h): 2000 nM
IC50 (HaCaT; Homo sapiens, HaCaT, 48 h): > 2500 nM
IC50 (C33A; Homo sapiens, C-33-A, 48 h): > 5000 nM
IC50 (FaDu; Homo sapiens, FaDu, 48 h): > 2500 nM
IC50 (SKOV3; Homo sapiens, SK-OV-3, 48 h): > 2500 nM
IC50 (HeLa; Homo sapiens, HeLa, 48 h): 750 nM
IC50 (HOK-16B; 48 h): 700 nM
IC50 (CasKi; Homo sapiens, Ca-Ski, 48 h): 500 nM

N[C@@H](Cc1ccccc1)C(=O)N1CC(=Cc2ccccc2Cl)C(=O)C(=Cc2ccccc2Cl)C1 [RA166, 3,5-bis(2-chlorobenzylidene)-1-(S-2-amino-3-phenyl)-piperidin-4-one-HCl salt]
IC50 (HT3; 48-hr treatment, XTT assay): > 5000 nM
IC50 (SiHa; 48-hr treatment, XTT assay): 2000 nM
IC50 (HaCaT; 48-hr treatment, XTT assay): > 2500 nM
IC50 (C33A; 48-hr treatment, XTT assay): > 5000 nM
IC50 (FaDu; 48-hr treatment, XTT assay): > 5000 nM
IC50 (SKOV3; 48-hr treatment, XTT assay): > 2500 nM
IC50 (HeLa; 48-hr treatment, XTT assay): 600 nM
IC50 (OVCAR3): > 5000 nM
IC50 (HOK-16B; 48-hr treatment, XTT assay): > 5000 nM
IC50 (CasKi; 48-hr treatment, XTT assay): 1500 nM

N[C@@H](Cc1ccccc1)C(=O)N1CC(=Cc2ccccc2)C(=O)C(=Cc2ccccc2)C1 [RA181, 3,5-dibenzylidene-1-(S-2-amino-3-phenyl)-piperidin-4-one-HCl salt]
IC50 (HT3; 48-hr treatment, XTT assay): > 5000 nM
IC50 (SiHa; 48-hr treatment, XTT assay): 2000 nM
IC50 (HaCaT; 48-hr treatment, XTT assay): > 2500 nM
IC50 (C33A; 48-hr treatment, XTT assay): > 5000 nM
IC50 (FaDu; 48-hr treatment, XTT assay): > 5000 nM
IC50 (SKOV3; 48-hr treatment, XTT assay): > 2500 nM
IC50 (HeLa; 48-hr treatment, XTT assay): 350 nM
IC50 (OVCAR3): > 5000 nM
IC50 (HOK-16B; 48-hr treatment, XTT assay): > 5000 nM
IC50 (CasKi; 48-hr treatment, XTT assay): 2000 nM

O=C(CCCC[C@@H]1SCC2NC(=O)NC21)N[C@@H](Cc1ccccc1)C(=O)N1C/C(=C\c2ccc(Cl)c(Cl)c2)C(=O)/C(=C/c2ccc(Cl)c(Cl)c2)C1 (some centres unmarked) [RA190B]
labeling of / competition for RPN13 (42 kDa band) (RPN13): bound to the 42 kDa protein
potency in cell killing and polyubiquitin accumulation / functional assays relative to RA190 (HeLa): did not affect its potency

Cl.N[C@@H](Cc1ccccc1)C(=O)N1CC(C(SCCO)c2ccc(Cl)c(Cl)c2)C(=O)C(C(SCCO)c2ccc(Cl)c(Cl)c2)C1 (some centres unmarked) [RA190ME, 3,5-bis((2-hydroxyethylthio)(3,4-dichlorophenyl)methyl)-1-(S-2-amino-3-phenyl)-piperidin-4-one-HCl salt]
potency in cell killing and polyubiquitin accumulation / functional assays relative to RA190 (HeLa): significantly reduced its potency

N[C@@H](Cc1ccccc1)C(=O)N1C/C(=C\c2ccc(Cl)c(Cl)c2)C(=NO)/C(=C/c2ccc(Cl)c(Cl)c2)C1 [RA190O]
potency in cell killing and polyubiquitin accumulation / functional assays relative to RA190 (HeLa): dramatically reduced activity

N[C@@H](Cc1ccccc1)C(=O)N1CC(Cc2ccc(Cl)c(Cl)c2)C(O)C(Cc2ccc(Cl)c(Cl)c2)C1 (some centres unmarked) [RA190R]
potency in cell killing and polyubiquitin accumulation / functional assays relative to RA190 (HeLa): dramatically reduced activity

O=C(CCCC[C@@H]1SCC2NC(=O)NC21)NCCCC[C@H](NC(=O)OCC1c2ccccc2-c2ccccc21)C(=O)N1C/C(=C\c2ccc(Cl)c(Cl)c2)C(=O)/C(=C/c2ccc(Cl)c(Cl)c2)C1 (some centres unmarked) [RA195B]
labeling of / competition for RPN13 (42 kDa band) (RPN13): labels HeLa cell lysate at 42 KDa

N[C@@H](Cc1c[nH]cn1)C(=O)N1CC(=Cc2ccc(Cl)c(Cl)c2)C(=O)C(=Cc2ccc(Cl)c(Cl)c2)C1 [RA196, 3,5-bis(3,4-dichlorobenzylidene)-1-(S-1H-imidazol-4-yl) piperidin-4-one di HCl salt]
IC50 (HT3; 48-hr treatment, XTT assay): > 5000 nM
IC50 (SiHa; 48-hr treatment, XTT assay): 2000 nM
IC50 (HaCaT; 48-hr treatment, XTT assay): > 2500 nM
IC50 (C33A; 48-hr treatment, XTT assay): > 5000 nM
IC50 (FaDu; 48-hr treatment, XTT assay): > 5000 nM
IC50 (SKOV3; 48-hr treatment, XTT assay): > 2500 nM
IC50 (HeLa; 48-hr treatment, XTT assay): 600 nM
IC50 (OVCAR3): 2500 nM
IC50 (HOK-16B; 48-hr treatment, XTT assay): 3000 nM
IC50 (CasKi; 48-hr treatment, XTT assay): 1000 nM

N[C@@H](Cc1ccccc1)C(=O)N1CC(=Cc2ccccc2F)C(=O)C(=Cc2ccccc2F)C1 [RA201, 3,5-bis(2-fluorobenzylidene)-1-(S-2-amino-3-phenyl)-piperidin-4-one-HCl salt]
IC50 (HT3; 48-hr treatment, XTT assay): > 5000 nM
IC50 (SiHa; 48-hr treatment, XTT assay): 2000 nM
IC50 (HaCaT; 48-hr treatment, XTT assay): > 2500 nM
IC50 (C33A; 48-hr treatment, XTT assay): > 5000 nM
IC50 (FaDu; 48-hr treatment, XTT assay): > 5000 nM
IC50 (SKOV3; 48-hr treatment, XTT assay): > 2500 nM
IC50 (HeLa; 48-hr treatment, XTT assay): 350 nM
IC50 (OVCAR3): > 5000 nM
IC50 (HOK-16B; 48-hr treatment, XTT assay): 1500 nM
IC50 (CasKi; 48-hr treatment, XTT assay): 2500 nM

From patent US10500198B2, “Bis-benzylidine piperidone proteasome inhibitor with anticancer activity” (The Johns Hopkins University, priority 2013, dated 2019)
